Assay results published in the supplement of paper PMC10307832.

Columns and labels:
Test in all cases: relative viability (nuclei count vs DMSO), 5 days (fraction); higher = more cells survive
AZ3146 + Olaparib = compound: CN1CCC(CC1)OC2=CC(=C(C=C2)NC3=NC=C4C(=N3)N(C(=O)N4C)C5CCCC5)OC [AZ3146] + O=C(c1cc(Cc2n[nH]c(=O)c3ccccc23)ccc1F)N1CCN(C(=O)C2CC2)CC1 [Olaparib] (partner 8 µM)
Outline: (§1)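 Relative viability equals treated-well nuclei counts divided by vehicle-well nuclei counts. Counts came from 4× images of lung cancer cell lines grown in 1536-well plates for 5 days after pin-tool dosing on the day after seeding. Dosing used one drug alone or a fixed anchor-drug dose plus five library-drug doses (not always all listed) in √10 steps, and values are medians of duplicate plates.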

GSK-J4 + Lapatinib = compound: CCOC(=O)CCNc1cc(N2CCc3ccccc3CC2)nc(-c2ccccn2)n1 [GSK-J4] + CS(=O)(=O)CCNCc1ccc(-c2ccc3ncnc(Nc4ccc(OCc5cccc(F)c5)c(Cl)c4)c3c2)o1 [Lapatinib] (partner 2 µM)
Outline: as §1

AZ3146 + Tozasertib = compound: CN1CCC(CC1)OC2=CC(=C(C=C2)NC3=NC=C4C(=N3)N(C(=O)N4C)C5CCCC5)OC [AZ3146] + Cc1cc(Nc2cc(N3CCN(C)CC3)nc(Sc3ccc(NC(=O)C4CC4)cc3)n2)n[nH]1 [Tozasertib] (partner 0.1 µM)
Outline: as §1

AZ3146 + Alpelisib = compound: CN1CCC(CC1)OC2=CC(=C(C=C2)NC3=NC=C4C(=N3)N(C(=O)N4C)C5CCCC5)OC [AZ3146] + Cc1nc(NC(=O)N2CCC[C@H]2C(N)=O)sc1-c1ccnc(C(C)(C)C(F)(F)F)c1 [Alpelisib] (partner 2 µM)
Outline: as §1

Cell Line	relative viability (AZ3146 + Olaparib; first compound 0.08 µM)	relative viability (AZ3146 + Olaparib; first compound 0.253 µM)	relative viability (AZ3146 + Olaparib; first compound 0.8 µM)	relative viability (AZ3146 + Olaparib; first compound 2.53 µM)	relative viability (AZ3146 + Olaparib; first compound 8 µM)	relative viability (GSK-J4 + Lapatinib; first compound 0.5 µM)	relative viability (GSK-J4 + Lapatinib; first compound 1.581 µM)	relative viability (GSK-J4 + Lapatinib; first compound 5 µM)	relative viability (GSK-J4 + Lapatinib; first compound 15.81 µM)	relative viability (GSK-J4 + Lapatinib; first compound 50 µM)	relative viability (AZ3146 + Tozasertib; first compound 0.08 µM)	relative viability (AZ3146 + Tozasertib; first compound 0.253 µM)	relative viability (AZ3146 + Tozasertib; first compound 0.8 µM)	relative viability (AZ3146 + Tozasertib; first compound 2.53 µM)	relative viability (AZ3146 + Tozasertib; first compound 8 µM)	relative viability (AZ3146 + Alpelisib; first compound 0.08 µM)	relative viability (AZ3146 + Alpelisib; first compound 0.253 µM)	relative viability (AZ3146 + Alpelisib; first compound 0.8 µM)	relative viability (AZ3146 + Alpelisib; first compound 2.53 µM)	relative viability (AZ3146 + Alpelisib; first compound 8 µM)
NCI-H2347	0.587	0.354	0.562	0.49	0.612	0.841	0.573	0.753	0.963	0.664	0.399	0.529	0.461	0.744	0.464	0.944	1.01	0.708	1.1	1.04
NCI-H2405	0.827	0.881	0.933	0.925	0.818	1.15	1.03	–	1.09	1.17	0.609	0.784	0.63	0.577	0.397	0.891	–	0.789	0.829	0.76
NCI-H3122	0.582	0.611	0.543	0.615	0.645	0.966	0.989	1	0.964	0.911	0.397	0.345	0.307	0.344	0.228	0.68	0.683	0.702	0.872	0.775
PC-3 [JPC-3]	1.04	–	1.01	1.25	1.09	0.47	0.385	0.578	0.43	0.427	0.829	0.905	0.855	0.877	0.715	0.914	1.01	1.02	1.08	1.07
PC-14	0.286	0.319	0.259	0.225	0.0944	0.351	0.228	0.344	0.249	0.323	0.33	0.589	0.543	0.386	0.0776	0.897	0.976	0.979	1.07	0.916
RERF-LC-KJ	0.94	0.833	0.902	0.852	0.462	0.843	0.802	0.749	0.788	0.734	0.465	0.497	0.403	0.294	0.25	0.805	0.834	0.685	0.888	0.747
SK-LU-1	0.452	0.496	0.414	0.445	0.441	0.758	0.776	0.668	0.616	0.585	0.354	0.293	0.279	0.3	0.216	0.892	1.05	1.15	1.23	0.571
SK-MES-1	0.779	0.759	0.718	0.784	0.654	0.452	0.495	0.459	0.392	0.421	0.891	0.97	0.77	0.276	0.211	0.785	0.93	0.866	0.836	0.932
SW 1573	0.569	0.507	0.575	0.374	0.227	1.05	1.05	0.728	0.865	1.02	0.208	0.162	0.179	0.164	0.195	0.843	0.762	0.762	0.894	0.757
